{
  "source": "patent US20220221445A1",
  "about": "“USES OF PATIENT-DERIVED INTESTINAL ORGANOIDS FOR CELIAC DISEASE DIAGNOSIS SCREENING AND TREATMENT” (The Board of TrusteesoftheLelandStanfordJuniorUniversity, priority 2019, published 2022)",
  "tested_on": "active CeD organoids",
  "experiment": "IL-15 expression and IL-15 gain-of-function in CeD organoids",
  "format": "cell-based, human",
  "details": "gain-of-function treatment",
  "description": "IL-15 loss-of-function is studied in gliadin-treated, active CeD organoids +/− IL-15 neutralization by soluble recombinant IL-15 receptor (soluble hIL15Rα, R&D #7194-IR) or anti-human IL-15 neutralizing antibody (R&D #MAB647). Endpoints include inhibition of the following gliadin-induced responses: (1) HLA-DQ2:gliadin tetramer-positive T cell abundance by FACS, (2) tetramer(+) CD4^+ T cell or tetramer(−) CD8^+ IEL activation by scRNA-seq and Nanostring digital transcript counting of FACS-sorted immune subsets and (3) inhibition of gliadin-induced epithelial apoptosis and proliferation. Gain-of-function recombinant IL-15 treatment (R&D #247-ILB) of CeD organoids enhances gliadin-induced (1) expansion of HLA-DQ2:gliadin tetramer^82-positive T cells by FACS, (2) activation of these tetramer(+) CD4^+ T cells or tetramer(−) CD8^+ IELs by scRNA-seq and FACS/Nanostring analysis of immune subsets and (3) induction of epithelial apoptosis and proliferation.",
  "data": [
    {"substance": "recombinant IL-15: recombinant IL-15 (R&D #247-ILB)", "values": [
      {"measurement": "effect on gliadin-induced tetramer-positive T cell expansion, T cell activation, epithelial apoptosis and proliferation", "value": "enhances"}
    ]}
  ]
}
